From patent US20250092056A1, “URACIL DERIVATIVES HAVING VIRUS REPLICATION INHIBITORY ACTIVITY AND PHARMACEUTICAL COMPOSITION COMPRISING THE SAME” (Shionogi & Co., Ltd., priority 2022, published 2025)

How the values were obtained:
SARS-CoV-2 = test: Cytopathic effect (CPE) suppression effect confirmation test using HEK293T/ACE2-TMPRSS2 cells; assay type: cell-based; conditions: Severe acute respiratory syndrome coronavirus 2, HEK-293T; 50% SARS-CoV-2 infected cell death inhibitory concentration; HEK293T/ACE2-TMPRSS2 cells; read-out: EC50
[1] = target: Recombinant SARS-CoV-2 3CL Protease (Severe acute respiratory syndrome coronavirus 2 (2019-nCoV) (SARS-CoV-2), UniProt P0DTD1); test: biochemical; assay type: biochemical; conditions: 50% SARS-CoV-2 3CL protease inhibitory concentration; read-out: IC50

Structure (SMILES)	EC50 (SARS-CoV-2) [nM]	IC50 [1] [nM]
N#CCn1c(N2CC(O)C2)c(-c2ccc(F)c(C(F)F)c2)c(=O)n(-c2cncc(C#N)c2)c1=O [Compound I-416]	< 100	< 10
N#CCn1c(N2CCC(F)(F)CC2)c(-c2ccc(F)c(C(F)F)c2)c(=O)n(-c2cncc(C#N)c2)c1=O [Compound I-417]	< 100	< 10
CCOC1CN(c2c(-c3ccc(F)c(Cl)c3)c(=O)n(-c3cncc(C(F)F)n3)c(=O)n2CC#N)C1 [Compound I-418]	< 100	< 10
N#CCn1c(N2CC(OC(F)F)C2)c(-c2ccc(F)c(Cl)c2)c(=O)n(-c2cncc(OCF)n2)c1=O [Compound I-420]	< 100	< 10
N#CCn1c(N2CC(C(F)(F)F)C2)c(-c2ccc(F)c(Cl)c2)c(=O)n(-c2cncc(OCF)n2)c1=O [Compound I-421]	< 100	< 10
N#CCn1c(N2CCC(C(F)F)CC2)c(-c2ccc(F)c(Cl)c2)c(=O)n(-c2cncc(OCF)n2)c1=O [Compound I-422]	< 100	< 10
N#CCn1c(CCC2(O)CCC2)c(-c2ccc(F)c(C(F)F)c2)c(=O)n(-c2cncc(C#N)c2)c1=O [Compound I-424]	< 100	< 10
N#CCn1c(CCC2(O)CCC2)c(-c2ccc(F)c(C(F)F)c2)c(=O)n(-c2cncc(Cl)c2)c1=O [Compound I-425]	< 100	< 10
N#CCn1c(N2CC3(C2)CC(F)(F)C3)c(-c2ccc(F)c(Cl)c2)c(=O)n(-c2cc(Cl)c[n+]([O-])c2)c1=O [Compound I-426]	< 100	< 10
COCc1c(-c2ccc(F)c(Cl)c2)c(=O)n(-c2cncc(Cl)c2)c(=O)n1CC#N [Compound I-435]	< 100	10 to 100
N#CCn1c(CCC2(O)CCC2)c(-c2ccc(F)c(F)c2)c(=O)n(-c2cncc(Cl)c2)c1=O [Compound I-436]	< 100	< 10
N#CCn1c(N2CC(OC(F)F)C2)c(-c2ccc(F)c(Cl)c2)c(=O)n(-c2cncc(C#N)c2)c1=O [Compound I-437]	< 100	< 10
C#CCn1c(C)c(-c2ccc(F)c(Cl)c2)c(=O)n(-c2cncc(Cl)c2)c1=O [Compound I-438]	< 100	< 10
N#CCn1c(N2CC(O)(c3ncccn3)C2)c(-c2ccc(F)c(C(F)F)c2)c(=O)n(-c2cncc(C#N)c2)c1=O [Compound I-439]	< 100	< 10
C#CCn1c(CC(C)(C)F)c(-c2ccc(F)c(Cl)c2)c(=O)n(-c2cncc(Cl)c2)c1=O [Compound I-440]	< 100	< 10
Cc1c(-c2ccc(F)c(Cl)c2)c(=O)n(-c2cncc(Cl)c2)c(=O)n1CC(N)=O [Compound I-441]	< 100	10 to 100
CC(=O)Cn1c(C)c(-c2ccc(F)c(Cl)c2)c(=O)n(-c2cncc(Cl)c2)c1=O [Compound I-442]	< 100	10 to 100
Cc1c(-c2ccc(F)c(Cl)c2)c(=O)n(-c2cncc(Cl)c2)c(=O)n1CC(=O)CO [Compound I-443]	100 to 1000	> 100
CC(=O)OCC(=O)Cn1c(C)c(-c2ccc(F)c(Cl)c2)c(=O)n(-c2cncc(Cl)c2)c1=O [Compound I-444]	100 to 1000	> 100
